Test results as given in patent publication US11345711B2, “8,9-dihydroimidazo[1,2-a]pyrimido[5,4-e]pyrimidin-5(6H)-ones” (IMPACT THERAPEUTICS (SHANGHAI), INC, priority 2016, dated 2022).
pIC50, pKd: −log10 of the molar value. Where two headings read alike, the source gives them in different places.

Experiments:
[1] = target: T1, human Wee1 (amino acids M291 to K575) (Homo sapiens, UniProt P30291); test: Wee1 dissociation constant (Kd), KINOMEscan KdELECT competitive binding test; settings: 11-point 3-fold dilution
T1 construct: host or cells: E. coli BL21 infected with T7 phage
T1 sequence (P30291 291-575): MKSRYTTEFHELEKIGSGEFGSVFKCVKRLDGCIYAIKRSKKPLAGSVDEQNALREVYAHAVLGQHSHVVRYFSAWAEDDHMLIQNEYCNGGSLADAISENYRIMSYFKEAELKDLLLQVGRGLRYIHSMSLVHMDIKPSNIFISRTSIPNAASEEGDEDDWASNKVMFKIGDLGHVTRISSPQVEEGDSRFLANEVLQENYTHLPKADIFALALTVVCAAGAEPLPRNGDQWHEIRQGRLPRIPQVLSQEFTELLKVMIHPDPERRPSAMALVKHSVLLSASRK
Procedure: Determination of Wee1 Dissociation Constant (Kd)
The Wee1 dissociation constants (Kd) which measures the affinity of tested compound to Wee 1 have been determined in the KINOMEscan™ KdELECT Service at DiscoveRx. KINOMEscan™ assay is based on competitive binding test. The affinity index Kd for Wee1 is calculated by qPCR measurement of the compounds that compete with the immobilized ligand and bind to the enzyme activity center.
Wee1 kinase-tagged T7 phage strains were prepared in an E. coli BL21 strain. E. coli was grown to log-phase and infected with T7 phage and incubated with shaking at 32° C. until lysis. The lysates were centrifuged and filtered to remove cell debris. A partial length construct of human Wee1 (amino acids M291 to K575 based on reference sequence NP_003381.1) was expressed on the T7 phage coat. A short DNA sequence, embedded within the T7 phage genome, was used as amplicon for detection via qPCR. […]
Test compounds were prepared as 111× stocks in 100% DMSO. Kas were determined using an 11-point 3-fold compound dilution series with three DMSO control points. […] The kinase concentration in the eluates was measured by qPCR. qPCR reactions were assembled by adding 2.5 μL of kinase eluate to 7.5 μL of qPCR master mix containing 0.15 μM amplicon primers and 0.15 μM amplicon probe. […]
The constants (KdS) were calculated with a standard dose-response curve using the Hill equation: […]

[2] = tested on: NCI-H1299 cells; test: MTT based cell viability assay on NCI-H1299 cells; settings: Homo sapiens, read-out: IC50, growth inhibition of NCI-H1299 cells
Summary of the method: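 Viability read-out was MTT reduction (0.5 mg/mL, 4 h, absorbance 552/630/690 nm) after 3-day compound exposure at 37 °C of NCI-H1299 cells seeded at 1000 per well. Dilutions spanned 10 μM–0.01 μM in DMSO, final DMSO 1‰. Survival-versus-concentration curves were fitted sigmoidally to give IC50.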

[3] = tested on: LoVo cells; test: MTT based cell viability assay on LoVo cells; settings: Homo sapiens, LoVo, 72 h, 3 d, read-out: IC50, growth inhibition of LoVo cells
Summary of the method: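 Inhibition of LoVo proliferation was derived as IC50 from a sigmoidal dose-response fit of cell survival. Readout was MTT (0.5 mg/mL, 4 h) with absorbance at 552/630/690 nm, after 3-day treatment at 37 °C. Eight-point series from 10 μM to 0.01 μM, DMSO control, 1% DMSO final.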

[4] = target: Wee1 (h) (Homo sapiens, UniProt P30291); test: Wee1 kinase (h) detection method, [γ-33P]-ATP filter assay; type: biochemical
Sequence of Wee1 (h) (P30291 whole entry): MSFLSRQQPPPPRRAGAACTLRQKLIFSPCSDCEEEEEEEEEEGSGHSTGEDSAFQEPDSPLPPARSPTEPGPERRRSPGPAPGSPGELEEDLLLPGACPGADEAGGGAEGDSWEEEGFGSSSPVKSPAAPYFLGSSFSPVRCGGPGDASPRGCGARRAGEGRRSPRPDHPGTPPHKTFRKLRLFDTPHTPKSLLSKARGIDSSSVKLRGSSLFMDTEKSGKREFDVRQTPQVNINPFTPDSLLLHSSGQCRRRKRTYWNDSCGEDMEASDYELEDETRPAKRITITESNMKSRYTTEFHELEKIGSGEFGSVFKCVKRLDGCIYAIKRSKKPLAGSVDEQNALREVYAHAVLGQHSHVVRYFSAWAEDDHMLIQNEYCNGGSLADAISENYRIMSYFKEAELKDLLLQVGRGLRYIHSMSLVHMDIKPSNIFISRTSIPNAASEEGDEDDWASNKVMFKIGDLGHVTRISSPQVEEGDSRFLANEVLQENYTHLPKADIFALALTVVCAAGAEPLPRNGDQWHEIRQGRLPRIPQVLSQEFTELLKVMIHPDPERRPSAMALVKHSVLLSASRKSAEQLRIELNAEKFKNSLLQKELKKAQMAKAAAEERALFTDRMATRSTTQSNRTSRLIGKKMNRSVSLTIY

[5] = tested on: advanced solid tumors; settings: cited from earlier work
[6] = AZD1775 alone or in combination with gemcitabine, cisplatin or carboplatin, 176 evaluable patients

Compound | pKd [1] | pIC50 ([2]; NCI-H1299 cells) | pIC50 [3] | Inh. (%) of Wee1 kinase enzyme activity ([4]; C 10 μm compound) | pIC50 ([2]; NCI-H1299, NCI-H1299 cells) | partial response [5, 6] | stable disease as the best response [5, 6] | response rate ([5]; TP53 wild-type patients (n=33)) | safety and tolerability ([5]; alone or in combination with chemotherapy, at a certain dose) | response rate ([5]; patients with TP53 mutation (n=19)) | Inh. (%) of Wee1 kinase enzyme activity ([4]; C 0.01 μm compound) | Inh. (%) of Wee1 kinase enzyme activity ([4]; C 0.1 μm compound) | Inh. (%) of Wee1 kinase enzyme activity ([4]; C 1 μm compound)
CN1CCN(c2ccc(Nc3ncc4c(n3)N3CCN=C3N(c3ccccc3Cl)C4=O)cc2)CC1 [Example 1, 6-(2-chlorophenyl)-2-((4-(4-methylpiperazin-1-yl)phenyl)amino)-8,9-dihydroimidazo[1,2-a]pyrimido[5,4-e]pyrimidin-5(6H)-one] | 6.60 | 5.80 | 5.45 | 96% |  |  |  |  |  |  |  |  | 
C=CCn1c(=O)c2cnc(Nc3ccc(N4CCN(C)CC4)cc3)nc2n1-c1cccc(C(C)(C)O)n1 [AZD1775] |  |  | 6.41 | 97% | 6.54 | 10% | 53% | 12% | safe and tolerable | 21% |  |  | 
CN1CCN(c2ccc(Nc3ncc4c(n3)N3CCN=C3N(c3c(F)cccc3Cl)C4=O)cc2)CC1 [Example 2, 6-(2-Chloro-6-fluorophenyl)-2-((4-(4-methylpiperazin-1-yl)phenyl)amino)-8,9-dihydroimidazo[1,2-a]pyrimido[5,4-e]pyrimidin-5(6H)-one] | 7.47 |  | 6.37 | 95% | 6.11 |  |  |  |  |  |  |  | 
Cc1cc(Nc2ncc3c(n2)N2CCN=C2N(c2c(F)cccc2Cl)C3=O)cc(F)c1N1CCN(C)CC1 [Example 123, 6-(2-Chloro-6-fluorophenyl)-2-((3-fluoro-5-methyl-4-(4-methylpiperazin-1-yl)phenyl)amino)-8,9-dihydroimidazo[1,2-a]pyrimido[5,4-e]pyrimidin-5(6H)-one] |  |  | 7.41 |  | 6.66 |  |  |  |  |  | 43% | 87% | 97%
CN1CCN(c2ccc(Nc3ncc4c(n3)N3CCN=C3N(c3c(Cl)cccc3Cl)C4=O)cc2Br)CC1 [Example 145, 6-(2,6-Dichlorophenyl)-2-((3-bromo-4-(4-methylpiperazin-1-yl)phenyl)amino)-8,9-dihydroimidazo[1,2-a]pyrimido[5,4-e]pyrimidin-5(6H)-one] |  | 6.66 | 7.07 |  |  |  |  |  |  |  | 21% | 72% | 97%
